Assay results reported in patent US20160206688A1, “METHODS FOR TREATING BACTEREMIA AND OSTEOMYELITIS USING ORITAVANCIN” (THE MEDICINES COMPANY, priority 2013, published 2016).
≈ marks a conversion by molar mass, not a printed value. Read-outs that look alike come from different tables or passages of the source.

System: S. aureus
Assay: Broth microdilution MIC, European bacteraemia isolates 2010-2012
Type: cell-based
How it was run: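 Bacteraemia isolates from European, Israeli, Russian, Turkish and Ukrainian hospitals (2010-2012) tested centrally by CLSI M07-A9 broth microdilution in cation-adjusted Mueller-Hinton broth with 0.002% polysorbate-80. QC strains E. faecalis ATCC 29212 and S. aureus ATCC 29213; interpretation per CLSI M100-S23 and EUCAST 2013.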

[1] = S. aureus, Methicillin-Susceptible (1,126), at ≦0.008 mg/L
[2] = S. aureus, Methicillin-resistant (372), at ≦0.008 mg/L
[3] = S. aureus, Vancomycin MIC = 2 mg/L (19), at 0.015 mg/L
[4] = S. aureus, Vancomycin MIC = 2 mg/L (19), at 0.03 mg/L
[5] = S. aureus, Vancomycin MIC = 2 mg/L (19), at 0.06 mg/L
[6] = S. aureus, Vancomycin MIC = 2 mg/L (19), at 0.12 mg/L
[7] = Staphylococcus aureus, Table 1, S. aureus, Methicillin-Susceptible (1,126)
[8] = Staphylococcus aureus, Table 1, S. aureus, Methicillin-resistant (372)
[9] = Staphylococcus aureus, read-out: cumulative % inhibited at MIC
[10] = Staphylococcus aureus, Table 2, S. aureus Methicillin-resistant (1,708)

With `CN[C@H](CC(C)C)C(=O)N[C@H]1C(=O)N[C@@H](CC(N)=O)C(=O)N[C@H]2C(=O)N[C@H]3C(=O)N[C@H](C(=O)N[C@H](C(=O)O)c4cc(O)cc(O)c4-c4cc3ccc4O)[C@H](O[C@H]3C[C@](C)(N)[C@@H](O)[C@H](C)O3)c3ccc(c(Cl)c3)Oc3cc2cc(c3O[C@@H]2O[C@H](CO)[C@@H](O)[C@H](O)[C@H]2O[C@H]2C[C@](C)(NCc3ccc(-c4ccc(Cl)cc4)cc3)[C@@H](O)[C@H](C)O2)Oc2ccc(cc2Cl)[C@H]1O` [Oritavancin, N-(4-(4-chlorophenyl)benzyl)A82846B] the “Number inhibited at MIC” value (S. aureus, Methicillin-Susceptible (1,126), at 0.25 mg/L) was 18, the “Number inhibited at MIC” value [1] was 28 and the “cumulative % inhibited at MIC” value [1] was 2.5%. The “Number inhibited at MIC” value (S. aureus, Methicillin-resistant (372), at 0.015 mg/L) was 86, the “Number inhibited at MIC” value (S. aureus, Methicillin-resistant (372), at 0.03 mg/L) was 180 and the “Number inhibited at MIC” value (S. aureus, Methicillin-resistant (372), at 0.06 mg/L) was 68. For the same compound, the “Number inhibited at MIC” value (S. aureus, Methicillin-resistant (372), at 0.12 mg/L) was 27, the “Number inhibited at MIC” value (S. aureus, Methicillin-resistant (372), at 0.25 mg/L) was 6 and the “Number inhibited at MIC” value [2] was 5. The “cumulative % inhibited at MIC” value [2] was 1.3%, the “Number inhibited at MIC” value [3] was 1 and the “cumulative % inhibited at MIC” value [3] was 5.3%. For the same compound, the “Number inhibited at MIC” value [4] was 3, the “cumulative % inhibited at MIC” value [4] was 21.1% and the “Number inhibited at MIC” value [5] was 11. The “cumulative % inhibited at MIC” value [5] was 78.9%, the “Number inhibited at MIC” value [6] was 3 and the “cumulative % inhibited at MIC” value [6] was 94.7%. The “Number inhibited at MIC” value (S. aureus, Vancomycin MIC = 2 mg/L (19), at 0.25 mg/L) was 1, the “Number inhibited at MIC” value (S. aureus, Vancomycin MIC = 2 mg/L (19), at ≦0.008 mg/L) was 0 and the “Number inhibited at MIC” value (S. aureus, Vancomycin MIC ≦1 mg/L (1,479), at 0.12 mg/L) was 102. For the same compound, the “Number inhibited at MIC” value (S. aureus, Vancomycin MIC ≦1 mg/L (1,479), at 0.25 mg/L) was 23, the MIC50 (Staphylococcus aureus) was 0.03 µg/mL (≈ 0.0167 µM) and the MIC90 (Staphylococcus aureus) was 0.06 µg/mL (≈ 0.0335 µM). It also gave an inhibition at 2 µg/mL (Staphylococcus aureus, S. aureus, Vancomycin MIC = 2 mg/L (19), at ≦0.008 mg/L, read-out: cumulative % inhibited at MIC) of 0%, an inhibition at 0.12 µg/mL (Staphylococcus aureus, S. aureus, Vancomycin MIC ≦1 mg/L (1,479), at 0.12 mg/L, read-out: cumulative % inhibited at MIC) of 98.4% and an inhibition at 0.25 µg/mL (Staphylococcus aureus, S. aureus, Vancomycin MIC ≦1 mg/L (1,479), at 0.25 mg/L, read-out: cumulative % inhibited at MIC) of 100%. For the same compound, the MIC50 [7] was 0.03 µg/mL (≈ 0.0167 µM), the MIC90 [7] was 0.06 µg/mL (≈ 0.0335 µM) and the MIC50 [8] was 0.03 µg/mL (≈ 0.0167 µM). It also gave an MIC90 [8] of 0.06 µg/mL (≈ 0.0335 µM), an MIC50 (Staphylococcus aureus, Table 1, S. aureus, Vancomycin MIC = 2 mg/L (19), read-out: MIC 50%) of 0.06 µg/mL (≈ 0.0335 µM) and an MIC90 (Staphylococcus aureus, Table 1, S. aureus, Vancomycin MIC = 2 mg/L (19), read-out: MIC 90%) of 0.12 µg/mL (≈ 0.0669 µM). It also gave an inhibition at 0.015 µg/mL [9] of 24.7%, an inhibition at 0.03 µg/mL [9] of 67.6% and an inhibition at 0.06 µg/mL [9] of 91.5%. For the same compound, the inhibition at 0.015 µg/mL (Staphylococcus aureus, read-out: cumulative % inhibited at MIC, S. aureus, Methicillin-Susceptible (1,126), at 0.015 mg/L) was 24.4%, the inhibition at 0.03 µg/mL (Staphylococcus aureus, read-out: cumulative % inhibited at MIC, S. aureus, Methicillin-Susceptible (1,126), at 0.03 mg/L) was 65.1% and the inhibition at 0.06 µg/mL (Staphylococcus aureus, read-out: cumulative % inhibited at MIC, S. aureus, Methicillin-Susceptible (1,126), at 0.06 mg/L) was 91.5%. It also gave an inhibition at 0.12 µg/mL (Staphylococcus aureus, read-out: cumulative % inhibited at MIC, S. aureus, Methicillin-Susceptible (1,126), at 0.12 mg/L) of 98.4%, an inhibition at 0.25 µg/mL (Staphylococcus aureus, read-out: cumulative % inhibited at MIC, S. aureus, Methicillin-Susceptible (1,126), at 0.25 mg/L) of 100% and an inhibition at 0.015 µg/mL (Staphylococcus aureus, read-out: cumulative % inhibited at MIC, S. aureus, Methicillin-resistant (372), at 0.015 mg/L) of 24.5%. For the same compound, the inhibition at 0.03 µg/mL (Staphylococcus aureus, read-out: cumulative % inhibited at MIC, S. aureus, Methicillin-resistant (372), at 0.03 mg/L) was 72.9%, the inhibition at 0.06 µg/mL (Staphylococcus aureus, read-out: cumulative % inhibited at MIC, S. aureus, Methicillin-resistant (372), at 0.06 mg/L) was 91.1% and the inhibition at 0.12 µg/mL (Staphylococcus aureus, read-out: cumulative % inhibited at MIC, S. aureus, Methicillin-resistant (372), at 0.12 mg/L) was 98.4%. It also gave an inhibition at 0.25 µg/mL (Staphylococcus aureus, read-out: cumulative % inhibited at MIC, S. aureus, Methicillin-resistant (372), at 0.25 mg/L) of 100%, an MIC50 [10] of 0.03 µg/mL (≈ 0.0167 µM) and an MIC90 [10] of 0.06 µg/mL (≈ 0.0335 µM). The “MIC Range” value (Table 2, S. aureus Methicillin-resistant (1,708)) was “≦0.008-0.25 mg/L”.
